Results taken from PubChem BioAssay (NCI).
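Following 48 hours of exposure in 96-well plates, responses at five concentrations were used to interpolate endpoints linearly. GI50 marks 50% less growth. At the TGI there is no net growth.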

Legend:
Assay in all cases: NCI-60 cell line screen, 48 h
RPMI-8226 leukemia = system: RPMI-8226 leukemia
SF-295 CNS = system: SF-295 CNS
SK-MEL-28 melanoma = system: SK-MEL-28 melanoma
TK-10 renal = system: TK-10 renal
UACC-62 melanoma = system: UACC-62 melanoma
HCT-116 colon = system: HCT-116 colon
EKVX NSCLC = system: EKVX NSCLC
SR leukemia = system: SR leukemia
SK-OV-3 ovarian = system: SK-OV-3 ovarian
SF-539 CNS = system: SF-539 CNS

Structure (SMILES)	TGI (RPMI-8226 leukemia) [µM]	TGI (SF-295 CNS) [µM]	TGI (SK-MEL-28 melanoma) [µM]	TGI (TK-10 renal) [µM]	TGI (UACC-62 melanoma) [µM]	TGI (HCT-116 colon) [µM]	TGI (EKVX NSCLC) [µM]	TGI (SR leukemia) [µM]	TGI (SK-OV-3 ovarian) [µM]	TGI (SF-539 CNS) [µM]	GI50 (RPMI-8226 leukemia) [µM]	GI50 (SF-295 CNS) [µM]	GI50 (SK-MEL-28 melanoma) [µM]	GI50 (TK-10 renal) [µM]	GI50 (UACC-62 melanoma) [µM]	GI50 (HCT-116 colon) [µM]	GI50 (EKVX NSCLC) [µM]	GI50 (SR leukemia) [µM]	GI50 (SK-OV-3 ovarian) [µM]	GI50 (SF-539 CNS) [µM]
Cc1cc(=O)[nH]c2c1C(=O)c1c(C)cc(=O)n(C)c1C2=O	> 9.41	0.31	0.0351	0.418	0.0332	0.253	0.366	> 10	0.432	0.0369	–	–	–	–	–	–	–	–	–	–
Cc1nc2sc(C(=O)Nc3cccc(Cl)c3)c(N)c2cc1C(O)c1ccccc1 (stereo not given)	> 100	13.5	22.3	33.6	16	> 100	26.1	> 100	16.1	7.25	0.848	1.21	3.12	3.77	0.757	0.426	3.39	0.414	1.22	0.546
O=C(NCCOC(=O)CCCCCCCCC(=O)OCCNC(=O)NC(=O)c1cn(Cc2ccccc2)c(=O)[nH]c1=O)NC(=O)c1cn(Cc2ccccc2)c(=O)[nH]c1=O	> 100	> 100	> 100	> 100	> 100	> 100	> 100	> 100	> 100	> 100	–	–	–	–	–	–	–	–	–	–
NCC[PH+](c1ccccc1)c1ccccc1.NCC[PH+](c1ccccc1)c1ccccc1.[Cl-].[Pt+4]	> 65.2	> 100	> 100	> 100	> 100	> 100	> 100	> 100	> 100	> 100	14.7	> 100	> 100	> 100	> 86.5	46.1	> 100	29.7	> 100	> 100
COc1cc2c(cc1OC)C(Sc1ccc(Cl)cc1)c1c(nc(N)c(C#N)c1N)O2 (stereo not given)	4.8	3.31	3.11	2.75	2.66	3.46	3.02	1.66	3.12	3.03	1.42	1.83	1.57	1.43	1.27	1.96	1.57	0.329	1.74	1.61
COc1ccc(-c2nn(-c3cccc(Cl)c3)cc2-c2c(C#N)c(=O)n3[nH]c(-c4ccc(C)o4)nc3c2C#N)cc1	> 50	> 50	21.1	> 50	42.7	22.5	40.8	22.1	> 50	> 50	5.68	3.46	5.51	12.4	6.46	2.53	1.54	4.22	11.7	5.67
CCCCCCC1CCCCN1C(c1ccccc1)C(O)c1ccccc1 (stereo not given)	6.08	18.4	22.1	27.6	24.8	11.7	21.3	8.54	25.1	24.3	2.61	4.31	9.99	14.2	11.7	3.11	5.87	2.94	12.2	11.6
O=[N+]([O-])/C(=C/C=C/c1ccccc1)c1ccccc1	1.55	9.08	4.23	4.46	3.1	3.62	16.3	4.05	24.4	3.61	0.118	2.56	2.09	2.04	1.55	1.88	6.03	1.01	12	1.86
CCOc1ccc(N=Nc2c(-c3ccccc3)nn(C(=O)CC(=O)Nc3ccccc3Cl)c2-c2ccccc2)cc1	> 100	> 100	> 100	> 100	> 100	> 100	> 100	> 100	> 100	> 100	–	–	–	–	–	–	–	–	–	–
CN(Cc1cnc2nc(N)nc(N)c2n1)c1c(Cl)cc(C(=O)NC(CCC(=O)O)C(=O)O)cc1Br (stereo not given)	> 100	–	> 100	> 100	> 100	> 100	> 100	> 100	> 100	> 100	< 0.01	< 0.01	> 23.8	< 0.01	< 0.0118	< 0.01	< 0.0282	< 0.01	0.0595	< 0.01
COc1cc([N+](=O)[O-])c(S(=O)(=O)O)cc1-[n+]1nc(C(=O)Nc2ccccc2)nn1-c1ccc([N+](=O)[O-])c(S(=O)(=O)[O-])c1	> 100	> 100	> 100	> 100	> 100	> 100	> 100	> 100	> 100	> 100	–	–	–	–	–	–	–	–	–	–
CCCC/C=C1/CCC(CN(C)C)C1=O (stereo not given)	0.897	13	3.93	2.51	4.96	4.01	4.48	2.99	25.1	6.05	–	–	–	–	–	–	2.14	–	–	–
O=C(/C=C/c1ccccn1)c1ccccc1	6.6	32.2	19.2	25.6	7	3.77	31.2	14.1	30.5	18.3	2.37	15.7	6.09	12.8	2.33	1.49	15.4	1.96	16.8	4.37
COc1cc(C(=O)/C=C/c2c(C)n([O-])c3ccc(Cl)cc3[n+]2=O)cc(OC)c1OC	33.4	> 100	52.9	> 100	23.1	12.2	> 100	5.65	> 100	27.4	3.18	99.4	10.8	7.83	3.87	2.75	8.46	1.86	24.9	11.2
O=C([CH-]C(=O)c1ccccc1)c1ccccc1.[CH2-]C.[CH2-]C.[Tl+3]	> 66	> 100	> 100	> 100	87.6	34.2	80.1	50.1	> 100	86	10.4	15.6	33.5	55	20.8	9.72	19.7	6.35	32.5	23.2
CC(C)OC(=O)c1cc(NC(=S)OC(C)C)ccc1Cl	> 76.8	46.9	> 57	52.4	31.2	> 54.6	32.7	> 100	> 62.6	30.5	–	–	–	–	–	–	–	–	–	–
